# Results from ChEMBL document CHEMBL5055636, “Design, Optimization, and Structural Characterization of an Apoptosis-Inducing Factor Peptide Targeting Human Cyclophilin A to Inhibit Apoptosis Inducing Factor-Mediated Cell Death” (J Med Chem, 2021).
# Calls of active or inactive are those of the source. No cut-off for these calls is given here. Positions of bridges follow the written chain, without caps; N, C: chain ends. Residues, ends and D or L forms follow the SMILES beside them.
# How the values were obtained:
# [1] = Stability of the compound in human serum after 6 hrs by RP-HPLC analysis; format: ADME, cell-free
# [2] = Cytotoxicity against mouse HT-22 cells assessed as cell viability at 50 uM measured after 24 hrs by MTT assay; format: cell-based; details: read-out: Activity
# [3] = Stability of the compound in human serum assessed as half life after 12 hrs by RP-HPLC analysis; format: ADME, cell-free
# [4] = target: Peptidyl-prolyl cis-trans isomerase A (Homo sapiens, UniProt P62937); assay: Binding affinity to His6-tagged CypA (unknown origin) expressed in Escherichia coli BL21 (DE3) incubation at 1 hr by multimode plate reader
# [5] = Stability of the compound in human serum assessed as compound remaining after 12 hrs by RP-HPLC analysis; format: ADME, cell-free; details: read-out: Stability
# HT-22 = assay: Neuroprotective activity against […]-induced toxicity in mouse HT-22 cells assessed as increase in survival at 50 uM preincubated for 24 hrs followed by […] and measured after 16 hrs by MTT assay; format: functional; details: time 40 hrs
# [6] = Stability of the compound in human serum after 2 hrs by RP-HPLC analysis; format: ADME, cell-free
compound,measurement,setting,value
CC[C@H](C)[C@H](NC(=O)[C@H](Cc1cnc[nH]1)NC(=O)[C@H](CC(=O)O)NC(=O)[C@@H](NC(=O)[C@H](CCC(=O)O)NC(=O)[C@@H](NC(=O)[C@H](CCCCN)NC(=O)[C@H](CCCNC(=N)N)NC(=O)CNC(=O)[C@H](CC(=O)O)NC(=O)[C@H](CCCCN)NC(=O)[C@H](CC(C)C)NC(=O)[C@H](CCCCN)NC(=O)[C@@H](NC(=O)[C@H](CC(C)C)NC(=O)[C@H](CC(C)C)NC(=O)[C@H](CCCCN)NC(=O)CNC(=O)[C@H](CO)NC(=O)[C@H](CO)NC(=O)[C@@H](NC(=O)CNC(=O)[C@@H](NC(=O)[C@H](CO)NC(=O)[C@@H](N)CCC(N)=O)C(C)C)C(C)C)[C@@H](C)CC)C(C)C)[C@@H](C)O)C(=O)O,Stability,[1],Unstable
same,"viability at 24 h, 50 µM",[2],> 90%
same,half-life,[3],4 h
CC[C@H](C)[C@@H]1NC(=O)[C@H](C)NC(=O)[C@@H](NC(C)=O)CSSC[C@@H](C(N)=O)NC(=O)[C@H](CCC(=O)O)NC(=O)[C@H](C(C)C)NC(=O)[C@H](CCCCN)NC(=O)[C@H](CCCNC(=N)N)NC(=O)CNC(=O)[C@H](CC(=O)O)NC(=O)[C@H](CCCCN)NC(=O)[C@H](CC(C)C)NC(=O)[C@H](CCCCN)NC1=O (Ac-CAIKLKDGRKVEC-NH2; disulfide 1-13),Activity,[4],Active
CC[C@H](C)[C@@H]1NC(=O)[C@@H](NC(C)=O)CSSC[C@@H](C(N)=O)NC(=O)[C@H](C(C)C)NC(=O)[C@H](CCCCN)NC(=O)[C@H](CCCNC(=N)N)NC(=O)CNC(=O)[C@H](CC(=O)O)NC(=O)[C@H](CCCCN)NC(=O)[C@H](CC(C)C)NC(=O)[C@H](CCCCN)NC1=O (Ac-CIKLKDGRKVC-NH2; disulfide 1-11),remaining at 12 h,[5],75%
same,Activity,HT-22,10%
same,"viability at 24 h, 50 µM",[2],> 90%
same,Stability,[6],Unstable
same,Kd,[4],2.4 µM
CC(=O)N[C@H]1CSSC[C@@H](C(N)=O)NC(=O)[C@H](CCC(=O)O)NC(=O)[C@H](C(C)C)NC(=O)[C@H](CCCCN)NC(=O)[C@H](CCCNC(=N)N)NC(=O)CNC(=O)[C@H](CC(=O)O)NC(=O)[C@H](CCCCN)NC(=O)[C@H](CC(C)C)NC(=O)[C@H](CCCCN)NC(=O)[C@H](C)NC(=O)[C@H](CC(C)C)NC1=O (Ac-CLAKLKDGRKVEC-NH2; disulfide 1-13),Activity,[4],Active
CC[C@H](C)[C@@H]1NC(=O)[C@H](CC(C)C)NC(=O)[C@@H](NC(C)=O)CSSC[C@@H](C(N)=O)NC(=O)[C@H](CCC(=O)O)NC(=O)[C@H](C(C)C)NC(=O)[C@H](CCCCN)NC(=O)[C@H](CCCNC(=N)N)NC(=O)CNC(=O)[C@H](CC(=O)O)NC(=O)[C@H](CCCCN)NC(=O)[C@H](CC(C)C)NC(=O)[C@H](C)NC1=O (Ac-CLIALKDGRKVEC-NH2; disulfide 1-13),Activity,[4],inactive
CC[C@H](C)[C@@H]1NC(=O)[C@H](CC(C)C)NC(=O)[C@@H](NC(C)=O)CSSC[C@@H](C(N)=O)NC(=O)[C@H](CCC(=O)O)NC(=O)[C@H](C(C)C)NC(=O)[C@H](CCCCN)NC(=O)[C@H](CCCNC(=N)N)NC(=O)CNC(=O)[C@H](CC(=O)O)NC(=O)[C@H](CCCCN)NC(=O)[C@H](C)NC(=O)[C@H](CCCCN)NC1=O (Ac-CLIKAKDGRKVEC-NH2; disulfide 1-13),Activity,[4],Active
CC[C@H](C)[C@@H]1NC(=O)[C@H](CC(C)C)NC(=O)[C@@H](NC(C)=O)CSSC[C@@H](C(N)=O)NC(=O)[C@H](CCC(=O)O)NC(=O)[C@H](C(C)C)NC(=O)[C@H](CCCCN)NC(=O)[C@H](CCCNC(=N)N)NC(=O)CNC(=O)[C@H](CC(=O)O)NC(=O)[C@H](C)NC(=O)[C@H](CC(C)C)NC(=O)[C@H](CCCCN)NC1=O (Ac-CLIKLADGRKVEC-NH2; disulfide 1-13),Activity,[4],inactive
CC[C@H](C)[C@@H]1NC(=O)[C@H](CC(C)C)NC(=O)[C@@H](NC(C)=O)CSSC[C@@H](C(N)=O)NC(=O)[C@H](CCC(=O)O)NC(=O)[C@H](C(C)C)NC(=O)[C@H](CCCCN)NC(=O)[C@H](C)NC(=O)CNC(=O)[C@H](CC(=O)O)NC(=O)[C@H](CCCCN)NC(=O)[C@H](CC(C)C)NC(=O)[C@H](CCCCN)NC1=O (Ac-CLIKLKDGAKVEC-NH2; disulfide 1-13),Activity,[4],inactive
CC[C@H](C)[C@@H]1NC(=O)[C@H](CC(C)C)NC(=O)[C@@H](NC(C)=O)CSSC[C@@H](C(N)=O)NC(=O)[C@H](CCC(=O)O)NC(=O)[C@H](C(C)C)NC(=O)[C@H](C)NC(=O)[C@H](CCCNC(=N)N)NC(=O)CNC(=O)[C@H](CC(=O)O)NC(=O)[C@H](CCCCN)NC(=O)[C@H](CC(C)C)NC(=O)[C@H](CCCCN)NC1=O (Ac-CLIKLKDGRAVEC-NH2; disulfide 1-13),Activity,[4],inactive
CC[C@H](C)[C@@H]1NC(=O)[C@H](CC(C)C)NC(=O)[C@@H](NC(C)=O)CSSC[C@@H](C(N)=O)NC(=O)[C@H](CCC(=O)O)NC(=O)[C@H](C)NC(=O)[C@H](CCCCN)NC(=O)[C@H](CCCNC(=N)N)NC(=O)CNC(=O)[C@H](CC(=O)O)NC(=O)[C@H](CCCCN)NC(=O)[C@H](CC(C)C)NC(=O)[C@H](CCCCN)NC1=O (Ac-CLIKLKDGRKAEC-NH2; disulfide 1-13),Activity,[4],Active
CC[C@H](C)[C@H](NC(=O)[C@H](CC(C)C)NC(=O)[C@H](CS)NC(C)=O)C(=O)N[C@@H](CCCCN)C(=O)N[C@@H](CC(C)C)C(=O)N[C@@H](CCCCN)C(=O)N[C@@H](CC(=O)O)C(=O)NCC(=O)N[C@@H](CCCNC(=N)N)C(=O)N[C@@H](CCCCN)C(=O)N[C@H](C(=O)N[C@@H](CCC(=O)O)C(=O)N[C@@H](CS)C(N)=O)C(C)C (Ac-CLIKLKDGRKVEC-NH2),Kd,[4],30 µM
CC[C@H](C)[C@@H]1NC(=O)[C@H](CC(C)C)NC(=O)[C@@H](NC(C)=O)CSSC[C@@H](C(N)=O)NC(=O)[C@H](CCC(=O)O)NC(=O)[C@H](C(C)C)NC(=O)[C@H](CCCCN)NC(=O)[C@H](CCCNC(=N)N)NC(=O)CNC(=O)[C@H](CC(=O)O)NC(=O)[C@H](CCCCN)NC(=O)[C@H](CC(C)C)NC(=O)[C@H](CCCCN)NC1=O (Ac-CLIKLKDGRKVEC-NH2; disulfide 1-13),Kd,[4],3.2 µM
